The test system of this assay is HBV. Put plainly: HBV infection of HepG2-NTCP cells, HBeAg AlphaLISA readout. It is filed as cell-based. Conditions: Hepatitis B virus, 192 h, 2000 GE/cell, HBeAg in supernatant at day 8 post infection, 50% reduction relative to DMSO controls, read-out: Cellular EC50. As for the experimental part: HepG2-NTCP A3 cells were maintained in DMEM media supplemented with GlutaMAX™, 10% fetal bovine serum, 1% penicillin/streptomycin, and 5 ug/mL puromycin at 37° C. in a humidified atmosphere with 5% CO2 in a collagen-coated tissue culture flask.
HepG2-NTCP cells were seeded in 384 well plate containing 16,000 cells/well two days prior to the infection. On the day of infection, compounds were 3-fold serially diluted in DMSO and pre-incubated with HepG2-NTCP cells for two hours before purified HBV addition. HBV infection was carried out at 2000 GE/cell with 4% PEG, and the final concentration of DMSO is 0.5%. On day one post infection, HBV-containing media was aspirated, cells were washed once with PBS and then maintained in 2.5% DMSO containing media for the remainder of the assay.
Supernatants from infected HepG2-NTCP cells were collected at day 8 post infection, and the amount of viral antigen HBeAg was measured by HBeAg AlphaLISA detection kit (PerkinElmer) following the manufacturer's recommended protocol. Irrespective of readout, compound concentrations that reduce viral product accumulation in supernatants by 50% relative to DMSO controls (EC50) are reported. EC50 ranges are as follows: A<0.1 µM; B 0.1-1 µM; C>1 µM.
Background: Alpha assays give light when donor and acceptor beads are brought close together.
As usually defined, the EC50 is the midpoint of the concentration-response curve. For `CN1[C@H](C2CC2)CN(c2ccccc2)c2cc3c(cc2S1(=O)=O)-c1cc(C(=O)O)ccc1CO3` [Example 2, (R)-10-cyclopropyl-11-methyl-8-phenyl-8,9,10,11-tetrahydro-5H-benzo[3,4]chromeno[7,6-f][1,2,5]thiadiazepine-2-carboxylic acid 12,12-dioxide], the EC50 fell in the range of 100 to 1000 nM.

As for `CN1[C@H](CC2CC2)CN(c2ccccc2)c2cc3c(cc2S1(=O)=O)-c1cc(C(=O)O)ccc1CO3` [Example 3], the EC50 lay in the range of 100 to 1000 nM.

`CC(C)C[C@@H]1CN(c2ccccc2)c2cc3c(cc2S(=O)(=O)N1C)-c1cc(C(=O)O)ccc1CO3` [Example 4, (R)-10-isobutyl-11-methyl-8-phenyl-8,9,10,11-tetrahydro-5H-benzo[3,4]chromeno[7,6-f][1,2,5]thiadiazepine-2-carboxylic acid 12,12-dioxide]: the EC50 was less than 100 nM.

As to `CN1[C@H](CC(C)(C)C)CN(c2ccccc2)c2cc3c(cc2S1(=O)=O)-c1cc(C(=O)O)ccc1CO3` [Example 5], the EC50 was less than 100 nM.

With `CC(C)[C@@H]1CN(c2ccccc2)c2cc3c(cc2S(=O)(=O)N1C)-c1cc(C(=O)O)ccc1CO3` [Example 6], the concentration for a half-maximal effect (EC50) was in the range of 100 to 1000 nM.

As for `CCCC[C@@H]1CN(c2ccccc2)c2cc3c(cc2S(=O)(=O)N1C)-c1cc(C(=O)O)ccc1CO3` [Example 7, (R)-10-butyl-11-methyl-8-phenyl-8,9,10,11-tetrahydro-5H-benzo[3,4]chromeno[7,6-f][1,2,5]thiadiazepine-2-carboxylic acid 12,12-dioxide], the EC50 was less than 100 nM.

`CN1[C@H](C2CCCCC2)CN(c2ccccc2)c2cc3c(cc2S1(=O)=O)-c1cc(C(=O)O)ccc1CO3` [Example 8]: the half-maximal effective concentration (EC50) was less than 100 nM.

As for `CCCC[C@@H]1CN(c2ccccc2)c2cc3c(cc2S(=O)(=O)N1C)-c1cccc(C(=O)O)c1CO3` [Example 9], the EC50 was more than 1000 nM.

`CCCC[C@@H]1CN(c2ccccc2)c2cc3c(cc2S(=O)(=O)N1C)-c1cc(C(=O)O)c(F)cc1CO3` [Example 10, (R)-10-butyl-3-fluoro-11-methyl-8-phenyl-8,9,10,11-tetrahydro-5H-benzo[3,4]chromeno[7,6-f][1,2,5]thiadiazepine-2-carboxylic acid 12,12-dioxide]: the EC50 was less than 100 nM.

Consider `CCCC[C@@H]1CN(c2ccccc2)c2cc3c(cc2S(=O)(=O)N1C)-c1nc(C(=O)O)ccc1CO3` [Example 11, (R)-10-butyl-11-methyl-8-phenyl-8,9,10,11-tetrahydro-5H-pyrido[3′,2′:3,4]chromeno[7,6-f][1,2,5]thiadiazepine-2-carboxylic acid 12,12-dioxide], for which the EC50 was more than 1000 nM.

As to `CC(C)C[C@@H]1CN(c2ccccc2)c2cc3c(cc2S(=O)(=O)N1C)-c1cc(C(=O)O)c(F)c(F)c1CO3` [Example 12, (R)-3,4-difluoro-10-isobutyl-11-methyl-8-phenyl-8,9,10,11-tetrahydro-5H-benzo[3,4]chromeno[7,6-f][1,2,5]thiadiazepine-2-carboxylic acid 12,12-dioxide], the half-maximal effective concentration (EC50) was less than 100 nM.

Regarding `CN1[C@H](C2CCC2)CN(c2ccccc2)c2cc3c(cc2S1(=O)=O)-c1cc(C(=O)O)c(F)c(F)c1CO3` [Example 13], the 50% effective concentration (EC50) is less than 100 nM.

As for `CN1[C@H](C2CCCCC2)CN(c2ccccc2)c2cc3c(cc2S1(=O)=O)-c1cc(C(=O)O)c(F)c(F)c1CO3` [Example 14], the EC50 is less than 100 nM.

Consider `CCCC[C@@H]1CN(c2ccccc2)c2cc3c(cc2S(=O)(=O)N1C)-c1cc(C(=O)O)sc1CO3` [Example 15, (R)-9-butyl-10-methyl-7-phenyl-7,8,9,10-tetrahydro-4H-thieno[2′,3′:3,4]chromeno[7,6-f][1,2,5]thiadiazepine-2-carboxylic acid 11,11-dioxide], for which the EC50 was less than 100 nM.

As to `CN1[C@H](C2CCC2)CN(c2ccccc2)c2cc3c(cc2S1(=O)=O)-c1cc(C(=O)O)sc1CO3` [Example 16], the EC50 is less than 100 nM.

For the molecule `CCCC[C@@H]1CN(c2ccccc2)c2cc3c(cc2S(=O)(=O)N1C)-c1cc(C(=O)O)c(F)c(F)c1CO3` [Example 17], the EC50 is less than 100 nM.

As for `CC(C)C[C@@H]1CN(c2ccccc2)c2cc3c(cc2S(=O)(=O)N1C)-c1cc(C(=O)O)sc1CO3` [Example 18, (R)-9-isobutyl-10-methyl-7-phenyl-7,8,9,10-tetrahydro-4H-thieno[2′,3′:3,4]chromeno[7,6-f][1,2,5]thiadiazepine-2-carboxylic acid 11,11-dioxide], the 50% effective concentration (EC50) was less than 100 nM.

On to `CN1[C@H](C2CCCCC2)CN(c2ccccc2)c2cc3c(cc2S1(=O)=O)-c1cc(C(=O)O)sc1CO3` [Example 19], for which the EC50 is less than 100 nM.

For `CCCC[C@@H]1CN(c2ccccc2)c2cc3c(cc2S(=O)(=O)N1C)-c1cc(C(=O)O)ccc1[C@H](C(F)(F)F)O3` [Example 21a, (5R,10R)-10-butyl-11-methyl-8-phenyl-5-(trifluoromethyl)-8,9,10,11-tetrahydro-5H-benzo[3,4]chromeno[7,6-f][1,2,5]thiadiazepine-2-carboxylic acid 12,12-dioxide], the EC50 is 100 to 1000 nM.

For `CCCC[C@@H]1CN(c2ccccc2)c2cc3c(cc2S(=O)(=O)N1C)-c1cc(C(=O)O)ccc1[C@@H](C(F)(F)F)O3` [Example 21b, (5S,10R)-10-butyl-11-methyl-8-phenyl-5-(trifluoromethyl)-8,9,10,11-tetrahydro-5H-benzo[3,4]chromeno[7,6-f][1,2,5]thiadiazepine-2-carboxylic acid 12,12-dioxide], the EC50 lay in the range of 100 to 1000 nM.

In the case of `CCCC[C@@H]1CN(c2ccccc2)c2cc3c(cc2S(=O)(=O)N1C)-c1cc(C(=O)O)ccc1[C@H](C(C)(C)C)O3` [Example 22a, (5S,10R)-5-(tert-butyl)-10-butyl-11-methyl-8-phenyl-8,9,10,11-tetrahydro-5H-benzo[3,4]chromeno[7,6-f][1,2,5]thiadiazepine-2-carboxylic acid 12,12-dioxide], the EC50 is more than 1000 nM.

Take `CCCC[C@@H]1CN(c2ccccc2)c2cc3c(cc2S(=O)(=O)N1C)-c1cc(C(=O)O)ccc1[C@@H](C(C)(C)C)O3` [Example 22b, (5R,10R)-5-(tert-butyl)-10-butyl-11-methyl-8-phenyl-8,9,10,11-tetrahydro-5H-benzo[3,4]chromeno[7,6-f][1,2,5]thiadiazepine-2-carboxylic acid 12,12-dioxide]: the EC50 is more than 1000 nM.

`CCCC[C@@H]1CN(c2ccccc2)c2cc3c(cc2S(=O)(=O)N1C)-c1cc(C(=O)O)ccc1C(C)(C)O3` [Example 23, (R)-10-butyl-5,5,11-trimethyl-8-phenyl-8,9,10,11-tetrahydro-5H-benzo[3,4]chromeno[7,6-f][1,2,5]thiadiazepine-2-carboxylic acid 12,12-dioxide]: the EC50 was in the range of 100 to 1000 nM.

As to `CCCCC1CN(c2ccccc2)c2cc3c(cc2S(=O)(=O)N1C)-c1cc(C(=O)O)ccc1OC3` (centres unmarked) [Example 24, 10-butyl-11-methyl-8-phenyl-8,9,10,11-tetrahydro-6H-benzo[3,4]isochromeno[7,6-f][1,2,5]thiadiazepine-2-carboxylic acid 12,12-dioxide], the half-maximal effective concentration (EC50) is 100 to 1000 nM.

`CN1[C@H](C2CCCCC2)CNc2cc3c(cc2S1(=O)=O)-c1cc(C(=O)O)ccc1CO3` [Example 25, (R)-10-cyclohexyl-11-methyl-8,9,10,11-tetrahydro-5H-benzo[3,4]chromeno[7,6-f][1,2,5]thiadiazepine-2-carboxylic acid 12,12-dioxide]: the EC50 was more than 1000 nM.

As to `CCCC[C@@H]1CN(c2ccccc2)c2cc3c(cc2S(=O)(=O)N1C)-c1cc(C(=O)O)ccc1CN3C` [Example 27, (R)-10-butyl-6,11-dimethyl-8-phenyl-5,6,8,9,10,11-hexahydro-[1,2,5]thiadiazepino[7,6-b]phenanthridine-2-carboxylic acid 12,12-dioxide], the EC50 was less than 100 nM.

For the molecule `CCCC[C@@H]1CN(c2ccccc2)c2cc3c(cc2S(=O)(=O)N1C)-c1cc(C(=O)O)ccc1CN3C(C)C` [Example 28], the EC50 lay within 100 to 1000 nM.

Take `CCCC[C@@H]1CN(c2ccccc2)c2cc3c(cc2S(=O)(=O)N1C)-c1cc(C(=O)O)ccc1CN3` [Example 29]: the half-maximal effective concentration (EC50) lay in the range of 100 to 1000 nM.

`CN1[C@H](C2CCCCC2)CN(c2ccccc2)c2cc3c(cc2S1(=O)=O)-c1cc(C(=O)O)ccc1CN3c1ccccc1F` [Example 30]: the EC50 was more than 1000 nM.

Turning to `CN1Cc2ccc(C(=O)O)cc2-c2cc3c(cc21)NC[C@@H](C1CCCCC1)N(C)S3(=O)=O` [Example 31, (R)-10-cyclohexyl-6,11-dimethyl-5,6,8,9,10,11-hexahydro-[1,2,5]thiadiazepino[7,6-b]phenanthridine-2-carboxylic acid 12,12-dioxide], the EC50 was more than 1000 nM.

Take `CN1[C@H](C2CCCCC2)CNc2cc3c(cc2S1(=O)=O)-c1cc(C(=O)O)ccc1CN3c1ccccc1F` [Example 32]: the EC50 lay in the range of 100 to 1000 nM.

Regarding `CCCC[C@@H]1CN(c2ccccc2)c2cc3c(cc2S(=O)(=O)N1C)-c1cc(C(=O)O)ccc1C1(CC1)N3` [Example 33, (R)-10′-butyl-11′-methyl-8′-phenyl-8′,9′,10′,11′-tetrahydro-6′H-spiro[cyclopropane-1,5′-[1,2,5]thiadiazepino[7,6-b]phenanthridine]-2′-carboxylic acid 12′,12′-dioxide], the EC50 was more than 1000 nM.

The values above are taken from patent US20240325409A1, “Fused Heterotetracyclic Antiviral Agents” (Enanta Pharmaceuticals, Inc., priority 2023, published 2024).
